Reference: patent EP4818159A1 (Kissei Pharmaceutical Co., Ltd., priority 2023, dated 2025)

Test system: not given
Experiment: not given
Details: mice in which a TSH-releasing hormone (TRH) has been administered; cited from earlier work
In the case of `COc1ccc(C2Nc3ccccc3C(=O)N2Cc2ccco2)cc1COc1c(C)cc(NC(C)=O)cc1C` (stereo not shown) [NCGC00242364], the “blood T4 concentration lowering effect” value is listed as “blood T4 concentration lowering effect”.

Same assay, conditions: mice in which a thyroid stimulating antibody M22 has been administered; cited from earlier work
In the case of `COc1ccc(C2Nc3ccccc3C(=O)N2Cc2ccco2)cc1COc1c(C)cc(NC(C)=O)cc1C` (stereo not shown) [NCGC00242364], the “blood T4 concentration lowering effect” value is given as “blood T4 concentration lowering effect”.

Biological target: T1, human TSHR (Homo sapiens, UniProt P16473)
T1 construct: expressed in transfected cells
T1 sequence (P16473 21-764): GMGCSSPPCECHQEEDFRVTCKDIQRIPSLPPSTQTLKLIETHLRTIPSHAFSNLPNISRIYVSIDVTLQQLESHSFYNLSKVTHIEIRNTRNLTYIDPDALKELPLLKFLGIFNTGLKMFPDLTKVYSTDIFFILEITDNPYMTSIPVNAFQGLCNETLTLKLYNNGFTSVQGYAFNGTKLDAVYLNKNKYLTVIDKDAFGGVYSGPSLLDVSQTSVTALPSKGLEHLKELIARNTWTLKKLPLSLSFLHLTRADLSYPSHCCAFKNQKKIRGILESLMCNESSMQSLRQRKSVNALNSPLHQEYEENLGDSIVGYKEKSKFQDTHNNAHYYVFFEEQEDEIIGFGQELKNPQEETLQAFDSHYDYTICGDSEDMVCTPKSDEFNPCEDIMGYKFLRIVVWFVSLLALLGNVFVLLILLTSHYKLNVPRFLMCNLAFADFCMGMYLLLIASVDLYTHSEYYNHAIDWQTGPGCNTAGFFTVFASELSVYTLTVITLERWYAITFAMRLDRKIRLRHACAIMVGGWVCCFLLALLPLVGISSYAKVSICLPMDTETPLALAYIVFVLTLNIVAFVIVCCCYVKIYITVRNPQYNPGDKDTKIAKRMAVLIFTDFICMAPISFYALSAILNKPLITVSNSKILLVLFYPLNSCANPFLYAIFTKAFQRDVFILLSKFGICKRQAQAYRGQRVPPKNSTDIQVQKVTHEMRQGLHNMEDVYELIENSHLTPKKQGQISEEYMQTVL
Experiment: Antagonist activity using TSH-induced cAMP production in human TSHR-stably expressing CHO cells
Format: cell-based
Details: human TSH final concentration of 50 ng/mL, cAMP production rate
Procedure: Measurement of antagonist activity using TSH-induced cAMP production in human TSHR-stably expressing CHO cells as an indicator
The gene sequence (reference number NM_000369.2) of human TSHR was inserted into the multiple cloning site of pcDNA3.1(+). The prepared plasmid vector was introduced into CHO cells using a lipofection method to establish human TSHR-stably expressing CHO cells. The obtained cells were seeded at 5 x 10^4 cells/well in a 96-well poly-D-lysine-coated plate, and cultured in an F12 culture medium containing 10% FBS, 400 µg/mL of G418, 50 U/mL of penicillin and 50 µg/mL of streptomycin under conditions of 37°C and 5% CO2 for 1 day. The culture medium was removed, and the cells were then washed twice with 100 µL of an assay buffer (Hanks' Balanced Salt Solution containing 20 mM HEPES and 1 mM IBMX) per well. 30 µL of an assay buffer containing a test compound was added to the well, and incubation was performed at room temperature for 15 minutes. Then, 30 µL of an assay buffer containing human TSH (a final concentration of 50 ng/mL, R&D Systems, Inc.) was added, and incubation was performed at 37°C for 1 hour. The supernatant was removed, a Lysis and Detection Buffer 2 (Cisbio) was added, and incubation was performed at room temperature for 1 hour to prepare a cell lysate. According to the instruction manual of a cAMP Gs HiRange kit (Cisbio), the cell lysate, d2-labeled cAMP and anti-cAMP Europium Cryptate labeled antibodies (Cisbio) were reacted in a 384-well white microplate. Then, a fluorescence intensity ratio (measurement wavelength 665 nm/620 nm) was measured using a multi-plate reader (PHERAstar FSX, BMG LABTECH Japan). The fluorescence intensity ratio of each sample was converted to a cAMP content using a standard curve. The cAMP content was converted as a percentage of the control value to calculate a cAMP production rate. The cAMP production rate was plotted against the test compound concentration using Prism (Graph Pad Software Inc.) to calculate the IC50 value. In the tables, IC50<3.0 µM was indicated as A, and 3.0 µM≤IC50<30 µM was indicated as B. If activity was observed but the IC50 value could not be calculated, it was indicated as C.
`NC(=O)NC1Cc2cccc(Oc3cc(F)ccc3Cl)c2-n2ccnc21` (stereo not shown) [Example 28, 1-(9-(2-chloro-5-fluorophenoxy)-4,5-dihydroimidazo[1,2-a]quinoline-4-yl)urea] gave an IC50 of 3 to 30 µM. With `CN1C(=O)[C@H](NC(N)=O)Cc2cccc(C(O)c3ccccc3Cl)c21` (stereo partly drawn) [Example 12, 1-((3R)-8-((2-chlorophenyl)(hydroxy)methyl)-1-methyl-2-oxo-1,2,3,4-tetrahydroquinoline-3-yl)urea] the IC50 was > 30 µM. For `CN1C(=O)C(NC(N)=O)Cc2cccc(C(C)(C)c3ccccc3)c21` (stereo not shown) [Example 14, 1-(1-methyl-2-oxo-8-(2-phenylpropan-2-yl)-1,2,3,4-tetrahydroquinoline-3-yl)urea], the IC50 was 3 to 30 µM. With `Cc1ccc2c(c1Oc1cc(F)ccc1Cl)N(C)C(=O)[C@H](NC(=O)N1CCOCC1)C2` [Example 19, (R)-N-(8-(2-chloro-5-fluorophenoxy)-1,7-dimethyl-2-oxo-1,2,3,4-tetrahydroquinoline-3-yl)m orpholine-4-carboxamide] the IC50 was < 3 µM. In the case of `CC(c1cc(F)ccc1Cl)c1nsc2c1N(C)C(=O)[C@H](NC(N)=O)C2` (stereo partly drawn) [Example 43, 1-((6R)-3-(1-(2-chloro-5-fluorophenyl)ethyl)-4-methyl-5-oxo-4,5,6,7-tetrahydroisothiazolo[4 ,5-b]pyridine-6-yl)urea], the IC50 is reported as < 3 µM. In the case of `CN1C(=O)C(NC(N)=O)Cc2cc(NC(=O)OC3CCCC3)cc(Oc3ccccc3C#N)c21` (stereo not shown) [Example 4, cyclopentyl (8-(2-cyanophenoxy)-1-methyl-2-oxo-3-ureido-1,2,3,4-tetrahydroquinoline-6-yl)carbamate], the IC50 is reported as < 3 µM. In the case of `C=C(c1ccccc1Cl)c1cccc2c1N(C)C(=O)[C@H](NC(N)=O)C2` [Example 13, (R)-1-(8-(1-(2-chlorophenyl)vinyl)-1-methyl-2-oxo-1,2,3,4-tetrahydroquinoline-3-yl)urea], the IC50 is reported as < 3 µM. For `Cc1ccc2c(c1Oc1cc(F)ccc1Cl)N(C)C(=O)C1(NC(N)=O)CC21` (stereo not shown) [Example 32, 1-(4-(2-chloro-5-fluorophenoxy)-3,5-dimethyl-2-oxo-1,2,3,7b-tetrahydro-1aH-cyclopropa[c]quinoline-1a-yl)urea], the IC50 was 3 to 30 µM. With `CN1C(=O)C(CC(N)=O)Cc2cc(NC(=O)OC3CCCC3)cc(Oc3ccccc3C#N)c21` (stereo not shown) [Example 3, cyclopentyl (3-(2-amino-2-oxoethyl)-8-(2-cyanophenoxy)-1-methyl-2-oxo-1,2,3,4-tetrahydroquinoline-6-yl)carbamate] the IC50 was < 3 µM. In the case of `CN1C(=O)[C@H](NC(N)=O)Cc2sc(C#N)c(Cc3cc(F)ccc3Cl)c21` [Example 40, (R)-1-(3-(2-chloro-5-fluorobenzyl)-2-cyano-4-methyl-5-oxo-4,5,6,7-tetrahydrothieno[3,2-b]pyridin-6-yl)urea], the IC50 is reported as < 3 µM. `CN1C(=O)C(C(N)=O)Cc2cc(NC(=O)OC3CCCC3)cc(Oc3ccccc3)c21` (stereo not shown) [Example 1, cyclopentyl (3-carbamoyl-1-methyl-2-oxo-8-phenoxy-1,2,3,4-tetrahydroquinoline-6-yl)carbamate] gave an IC50 of 3 to 30 µM.
